Target: T1, StGE2 (Thermothelomyces thermophilus, UniProt G2QJR6)
T1 construct: gene ge2; produced in a P. pastoris strain from the OPTIBIOCAT consortium; construct not described
T1 sequence (G2QJR6 19-397): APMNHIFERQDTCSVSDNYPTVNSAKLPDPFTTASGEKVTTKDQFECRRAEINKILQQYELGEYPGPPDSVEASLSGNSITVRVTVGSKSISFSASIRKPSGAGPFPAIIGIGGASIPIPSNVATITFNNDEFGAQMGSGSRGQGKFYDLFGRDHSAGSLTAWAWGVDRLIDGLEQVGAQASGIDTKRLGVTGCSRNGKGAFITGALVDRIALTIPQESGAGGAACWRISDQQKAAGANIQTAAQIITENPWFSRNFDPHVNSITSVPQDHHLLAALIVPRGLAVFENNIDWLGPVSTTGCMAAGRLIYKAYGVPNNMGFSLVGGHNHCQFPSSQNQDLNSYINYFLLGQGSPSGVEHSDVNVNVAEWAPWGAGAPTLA
Assay: coupled spectrophotometric GlcA release (K-URONIC kit), relative activity
Type: biochemical
Details: 2 mM substrate, pH 6.0, 35 °C, 30 min; purification of StGE2 not described

In the case of O=C(OCc1ccccc1)[C@H]1OC(O)[C@H](O)[C@@H](O)[C@@H]1O (stereo partly shown) [BnGlcA], the “coupled spectrophotometric GlcA release (K-URONIC kit), relative activity” value is reported as “enzyme action on BnGlcA produced the highest amount of hydrolysed glucuronic acid”.
